Laboratory results reported in US20120211373A1, “MICROFLUIDIC SYSTEM FOR MEASURING CELL BARRIER FUNCTION” (THE REGENTS OF THE UNIVERSITY OF MICHIGAN, priority 2011, published 2012).

Legend:
b.End3 monolayers = test: Paracellular permeability across b.End3 monolayers in transwells and layered microfluidic devices
Description: The permeability of [^14C]-mannitol as a function of days across b.End3 cells cultured in transwells and layered microfluidic channels was measured. […] Consequently, mannitol has been routinely used to assess the paracellular permeability of epithelial and endothelial monolayers.
Permeability experiments were performed at 3, 6, 9, 12, 15, 18, and 21 days in culture for all three marker molecules with five replicates for both the transwells and the layered microfluidic devices. Briefly, cells grown in both the transwells and the layered microfluidic devices under static condition were removed from the incubator and washed twice by replacing culture medium with PBS solution. PBS solutions were then aspirated and replaced by the designated solution with radioactively labeled marker molecules at the apical (top) compartment. All transwells and layered microfluidic devices were then placed onto the shaker at 100 rpm inside the incubator at 37° C., 95% air, and 5% CO2 for a total of 60 minutes. At every 10 minute interval, the transwells and the layered microfluidic devices were taken out of the incubator; the PBS solutions from the basolateral compartments were collected and replaced by fresh PBS solutions. At the end of the 1 hour incubation time, the solutions in both the apical and basolateral compartments were collected. All the samples collected during the experiments were measured using liquid scintillation counter which evaluates the radioactivity of each sample in the unit of count per minute (CPM). CPMs from all samples are then converted into concentration using the standard dilution scheme.
The permeability of a given molecule across the monolayer was calculated by suing a derived form of a differential equation based on Fick's Law: […]
The unit of measurement cm/s for permeability coefficient is commonly used.

b.END.3 cell monolayer = test: TEER / impedance of b.END.3 cell monolayer after chemical treatment in microfluidic chip; assay type: cell-based, mouse
Description: Cell Seeding and Culture. Epithelial (MDCK-2) and endothelial (b.END.3) cell lines were selected because they offered well characterized and accepted TEER values to compare with the experimental results. […] All cell lines were cultured in endothelial growth media (DMEM with 10% fetal bovine serum and 1% penicillin/streptomycin) prior to seeding in the microfluidic chip. The microfluidic chip was exposed to plasma oxygen for 5 min to make hydrophilic. Prior to cell seeding, fibronectin solution (Invitrogen) at a concentration of 100 μg/mL in phosphate buffered saline (PBS) was injected into the upper (endothelial) channel to promote cell adhesion. The lower channel was preloaded with growth media. […]
Resolving TEER from Circuit Model. In order to resolve the TEER value from the experimental impedance spectra, the control impedance spectra (taken from the same chip just before cell seeding) was subtracted from the measured impedance spectra (with cells) to eliminate the effect from electrolyte, membrane, and electrode-electrolyte interfaces and simplify the analysis. […]

Row | Compound | lower permeability in layered microfluidic channels compared to transwells (b.End3 monolayers; Example 2, b.End3, as a function of days in culture (FIG. 11)) | lower permeability across b.End3 monolayers in layered microfluidic devices compared to transwells (b.End3 monolayers; Example 5, after 9 days in culture (FIG. 11A)) | permeability relative to the large markers in layered microfluidic devices (size selectivity) (b.End3 monolayers; day 3 and day 6 in culture (FIG. 11E)) | impedance of the entire system following treatment (b.END.3 cell monolayer; all frequency points, 30 min, 0.1% in DMEM) | TEER (paracellular resistance) after treatment (b.END.3 cell monolayer; b.END.3 monolayer treated 30 min with 0.1% in DMEM, before treatment 161.51±0.755 Ωcm^2)
1 | OC[C@@H](O)[C@@H](O)[C@H](O)[C@H](O)CO [[^14C]-mannitol, [^14C]-D-Mannitol] | 15 fold | 10 fold | higher permeability | – | –
2 | TritonX-100 | – | – | – | decreased significantly | 39.73±1.925 Ωcm^2
